Measured values reported in the NIST ThermoML archive (doi:10.1021/acs.jced.6b00121).

Assay: xn = mol fraction of the nth substance listed
Conditions: 100 kPa, Liquid; for viscosity: Falling or rolling sphere viscometry; for mass density: Vibrating tube method

CCCCCCCCCCC [undecane] + CCCO
Conditions	mass density [kg/m3]	viscosity [mPa·s]
283.15 K, x1 = 0.1003	794.54	2.378
283.15 K, x1 = 0.2009	782.93	2.098
283.15 K, x1 = 0.3004	774.29	1.867
283.15 K, x1 = 0.3997	767.69	1.722
283.15 K, x1 = 0.4998	762.46	1.585
283.15 K, x1 = 0.6005	758.08	1.482
283.15 K, x1 = 0.6974	754.68	1.412
283.15 K, x1 = 0.8	751.72	1.371
283.15 K, x1 = 0.8963	749.45	1.356
283.15 K, x1 = 1	747.78	1.371
288.15 K, x1 = 0.1003	790.63	2.104
288.15 K, x1 = 0.2009	779.03	1.861
288.15 K, x1 = 0.3004	770.41	1.69
288.15 K, x1 = 0.3997	763.82	1.539
288.15 K, x1 = 0.4998	758.6	1.426
288.15 K, x1 = 0.6005	754.26	1.338
288.15 K, x1 = 0.6974	750.86	1.28
288.15 K, x1 = 0.8	747.96	1.246
288.15 K, x1 = 0.8963	745.71	1.235
288.15 K, x1 = 1	744.06	1.249
293.15 K, x1 = 0.1003	786.69	1.865
293.15 K, x1 = 0.2009	775.1	1.656
293.15 K, x1 = 0.3004	766.5	1.515
293.15 K, x1 = 0.3997	759.92	1.382
293.15 K, x1 = 0.4998	754.73	1.286
293.15 K, x1 = 0.6005	750.41	1.214
293.15 K, x1 = 0.6974	747.04	1.165
293.15 K, x1 = 0.8	744.17	1.138
293.15 K, x1 = 0.8963	741.96	1.13
293.15 K, x1 = 1	740.35	1.145
298.15 K, x1 = 0.1003	782.72	1.655
298.15 K, x1 = 0.2009	771.14	1.481
298.15 K, x1 = 0.3004	762.56	1.357
298.15 K, x1 = 0.3997	756	1.246
298.15 K, x1 = 0.4998	750.83	1.166
298.15 K, x1 = 0.6005	746.54	1.106
298.15 K, x1 = 0.6974	743.2	1.065
298.15 K, x1 = 0.8	740.37	1.044
298.15 K, x1 = 0.8963	738.2	1.038
298.15 K, x1 = 1	736.64	1.062
303.15 K, x1 = 0.1003	778.73	1.487
303.15 K, x1 = 0.2009	767.15	1.332
303.15 K, x1 = 0.3004	758.59	1.223
303.15 K, x1 = 0.3997	752.04	1.129
303.15 K, x1 = 0.4998	746.9	1.061
303.15 K, x1 = 0.6005	742.64	1.012
303.15 K, x1 = 0.6974	739.34	0.978
303.15 K, x1 = 0.8	736.55	0.961
303.15 K, x1 = 0.8963	734.41	0.957
303.15 K, x1 = 1	732.93	0.982
308.15 K, x1 = 0.1003	774.69	1.333
308.15 K, x1 = 0.2009	763.12	1.196
308.15 K, x1 = 0.3004	754.57	1.106
308.15 K, x1 = 0.3997	748.05	1.025
308.15 K, x1 = 0.4998	742.93	0.968
308.15 K, x1 = 0.6005	738.71	0.929
308.15 K, x1 = 0.6974	735.45	0.901
308.15 K, x1 = 0.8	732.7	0.886
308.15 K, x1 = 0.8963	730.61	0.885
308.15 K, x1 = 1	729.23	0.91
313.15 K, x1 = 0.1003	770.6	1.198
313.15 K, x1 = 0.2009	759.04	1.08
313.15 K, x1 = 0.3004	750.52	1.004
313.15 K, x1 = 0.3997	744.02	0.935
313.15 K, x1 = 0.4998	738.93	0.888
313.15 K, x1 = 0.6005	734.75	0.855
313.15 K, x1 = 0.6974	731.52	0.833
313.15 K, x1 = 0.8	728.83	0.821
313.15 K, x1 = 0.8963	726.79	0.822
313.15 K, x1 = 1	725.53	0.847
318.15 K, x1 = 0.1003	766.466	1.079
318.15 K, x1 = 0.2009	754.911	0.979
318.15 K, x1 = 0.3004	746.411	0.913
318.15 K, x1 = 0.3997	739.944	0.856
318.15 K, x1 = 0.4998	734.891	0.816
318.15 K, x1 = 0.6005	730.749	0.789
318.15 K, x1 = 0.6974	727.572	0.772
318.15 K, x1 = 0.8	724.934	0.763
318.15 K, x1 = 0.8963	722.953	0.765
318.15 K, x1 = 1	721.818	0.79
323.15 K, x1 = 0.1003	762.28	0.976
323.15 K, x1 = 0.2009	750.73	0.889
323.15 K, x1 = 0.3004	742.26	0.828
323.15 K, x1 = 0.3997	735.82	0.786
323.15 K, x1 = 0.4998	730.81	0.754
323.15 K, x1 = 0.6005	726.72	0.732
323.15 K, x1 = 0.6974	723.59	0.717
323.15 K, x1 = 0.8	721.01	0.712
323.15 K, x1 = 0.8963	719.09	0.715
323.15 K, x1 = 1	718.11	0.74
328.15 K, x1 = 0.1003	758.02	0.885
328.15 K, x1 = 0.2009	746.49	0.811
328.15 K, x1 = 0.3004	738.04	0.76
328.15 K, x1 = 0.3997	731.64	0.723
328.15 K, x1 = 0.4998	726.68	0.698
328.15 K, x1 = 0.6005	722.64	0.681
328.15 K, x1 = 0.6974	719.57	0.669
328.15 K, x1 = 0.8	717.05	0.665
328.15 K, x1 = 0.8963	715.21	0.669
328.15 K, x1 = 1	714.39	0.692
333.15 K, x1 = 0.1003	753.7	0.805
333.15 K, x1 = 0.2009	742.18	0.741
333.15 K, x1 = 0.3004	733.76	0.698
333.15 K, x1 = 0.3997	727.41	0.668
333.15 K, x1 = 0.4998	722.5	0.648
333.15 K, x1 = 0.6005	718.52	0.634
333.15 K, x1 = 0.6974	715.51	0.625
333.15 K, x1 = 0.8	713.06	0.623
333.15 K, x1 = 0.8963	711.3	0.628
333.15 K, x1 = 1	710.68	0.651
338.15 K, x1 = 0.1003	749.3	0.734
338.15 K, x1 = 0.2009	737.8	0.68
338.15 K, x1 = 0.3004	729.43	0.645
338.15 K, x1 = 0.3997	723.12	0.619
338.15 K, x1 = 0.4998	718.27	0.604
338.15 K, x1 = 0.6005	714.36	0.593
338.15 K, x1 = 0.6974	711.41	0.586
338.15 K, x1 = 0.8	709.04	0.586
338.15 K, x1 = 0.8963	707.37	0.592
338.15 K, x1 = 1	706.95	0.615
343.15 K, x1 = 0.1003	744.8	0.672
343.15 K, x1 = 0.2009	733.33	0.626
343.15 K, x1 = 0.3004	725.01	0.596
343.15 K, x1 = 0.3997	718.77	0.576
343.15 K, x1 = 0.4998	713.98	0.563
343.15 K, x1 = 0.6005	710.14	0.555
343.15 K, x1 = 0.6974	707.27	0.551
343.15 K, x1 = 0.8	704.99	0.552
343.15 K, x1 = 0.8963	703.43	0.558
343.15 K, x1 = 1	703.22	0.58
348.15 K, x1 = 0.1003	740.24	0.617
348.15 K, x1 = 0.2009	728.8	0.578
348.15 K, x1 = 0.3004	720.53	0.553
348.15 K, x1 = 0.3997	714.34	0.537
348.15 K, x1 = 0.4998	709.64	0.527
348.15 K, x1 = 0.6005	705.88	0.522
348.15 K, x1 = 0.6974	703.09	0.519
348.15 K, x1 = 0.8	700.9	0.521
348.15 K, x1 = 0.8963	699.45	0.528
348.15 K, x1 = 1	699.47	0.549
353.15 K, x1 = 0.1003	735.57	0.568
353.15 K, x1 = 0.2009	724.18	0.535
353.15 K, x1 = 0.3004	715.97	0.515
353.15 K, x1 = 0.3997	709.86	0.502
353.15 K, x1 = 0.4998	705.23	0.495
353.15 K, x1 = 0.6005	701.57	0.492
353.15 K, x1 = 0.6974	698.86	0.49
353.15 K, x1 = 0.8	696.77	0.492
353.15 K, x1 = 0.8963	695.46	0.501
353.15 K, x1 = 1	695.72	0.522
358.15 K, x1 = 0.1003	730.81	0.525
358.15 K, x1 = 0.2009	719.45	0.497
358.15 K, x1 = 0.3004	711.32	0.481
358.15 K, x1 = 0.3997	705.29	0.471
358.15 K, x1 = 0.4998	700.75	0.466
358.15 K, x1 = 0.6005	697.19	0.465
358.15 K, x1 = 0.6974	694.58	0.463
358.15 K, x1 = 0.8	692.62	0.467
358.15 K, x1 = 0.8963	691.44	0.476
358.15 K, x1 = 1	691.96	0.497
363.15 K, x1 = 0.1003	725.93	0.4864
363.15 K, x1 = 0.2009	714.64	0.4635
363.15 K, x1 = 0.3004	706.59	0.4506
363.15 K, x1 = 0.3997	700.67	0.443
363.15 K, x1 = 0.4998	696.22	0.4401
363.15 K, x1 = 0.6005	692.77	0.4396
363.15 K, x1 = 0.6974	690.27	0.4398
363.15 K, x1 = 0.8	688.42	0.4438
363.15 K, x1 = 0.8963	687.41	0.4531
363.15 K, x1 = 1	688.18	0.475
